pIC50: −log10 of the molar value.
Assays:
[1] = target: MAPK14 (human) (UniProt Q16539); test: Inhibition of MAPK14 Kinase Activity
[2] = target: MAPK14 (human) (UniProt Q16539); test: Assessment of MAPK14 Kinase Activity

MAPK14 (human), sequence (Q16539 whole entry, looked up): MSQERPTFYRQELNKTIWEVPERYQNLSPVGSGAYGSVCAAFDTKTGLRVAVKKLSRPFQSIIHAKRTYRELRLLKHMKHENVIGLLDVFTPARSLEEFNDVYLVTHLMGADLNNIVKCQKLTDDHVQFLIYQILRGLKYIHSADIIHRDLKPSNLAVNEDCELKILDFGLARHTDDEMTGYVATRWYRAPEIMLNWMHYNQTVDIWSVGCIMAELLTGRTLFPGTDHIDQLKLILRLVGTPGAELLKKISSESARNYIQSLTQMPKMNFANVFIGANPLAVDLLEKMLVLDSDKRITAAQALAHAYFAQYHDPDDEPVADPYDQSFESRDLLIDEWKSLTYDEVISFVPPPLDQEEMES

Row | Structure (SMILES) | pIC50 [1] | pIC50 [2]
1 | Cc1c(F)cc(C(=O)NC2CC2)cc1-c1ccc(C(=O)NCc2cc(F)ccc2C(F)(F)F)c[n+]1[O-] | > 5.00 | 
2 | Cc1cc(C)cc(CNC(=O)c2ccc(-c3cc(C(=O)NC4CC4)cc(F)c3C)[n+]([O-])c2)c1 | > 5.00 | 
3 | Cc1c(F)cc(C(=O)NC2CC2)cc1-c1ccc(C(=O)NCc2cc(C(F)(F)F)ccc2F)c[n+]1[O-] | > 5.00 | > 5.00
4 | Cc1c(F)cc(C(=O)NC2CC2)cc1-c1ccc(C(=O)NCC(C)C)c[n+]1[O-] | > 5.00 | 

Now from value to compound:

Row | pIC50 [1] | pIC50 [2] | Structure (SMILES)
5 | > 5.00 | > 5.00 | Cc1c(F)cc(C(=O)NC2CC2)cc1-c1ccc(C(=O)N[C@@H](C)C(C)(C)C)c[n+]1[O-]
6 | > 5.00 | > 5.00 | Cc1c(F)cc(C(=O)NC2CC2)cc1-c1ccc(C(=O)N[C@@H](C)C(C)C)c[n+]1[O-]
7 | > 5.00 |  | Cc1c(F)cc(C(=O)NC2CC2)cc1-c1ccc(C(=O)N[C@H](C)C(C)(C)C)c[n+]1[O-]
8 | > 5.00 | > 5.00 | Cc1c(F)cc(C(=O)NC2CC2)cc1-c1ccc(C(=O)NC(C)(C)C)c[n+]1[O-]
